Test results reported in BindingDB's records for doi:10.1111/j.1747-0285.2009.00860.x (National University of Singapore, 2009).

Each molecule was assayed against T1, Dihydrofolate reductase (Bos taurus, UniProt P00376) (assay: Inhibition Assay).
T1 sequence (P00376 whole entry): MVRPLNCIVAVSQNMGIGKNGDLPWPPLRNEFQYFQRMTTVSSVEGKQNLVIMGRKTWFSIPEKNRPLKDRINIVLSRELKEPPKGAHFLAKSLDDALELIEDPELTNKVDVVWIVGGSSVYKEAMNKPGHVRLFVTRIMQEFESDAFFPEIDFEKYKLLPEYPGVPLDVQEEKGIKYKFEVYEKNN
From the text: Inhibition activity using bovine dihydrofolate reductase (DHFR).
For `NC1=NC2(CCCCC2)N(OCCCOc2ccccc2)C(N)=N1`, the IC50 was 6.9 nM. With `NC1=NC2(CCCC2)N(OCCc2ccccc2)C(N)=N1` [6,8,10-Traiazaspiro[4.5]deca-6,8-diene-7,9-diamine, Ic] the IC50 was 31 nM. `CN(CCCON1C(N)=NC(N)=NC12CCCCC2)c1ccccc1` [1,3,5-Triazaspiro[5.5]undeca-1,3-diene-2,4-diamine, IIf] gave an IC50 of 41.4 nM. For `NC1=NC2(CCCC2)N(Cc2ccccc2)C(N)=N1` [6,8,10-Traiazaspiro[4.5]deca-6,8-diene-7,9-diamine, Ia], the IC50 was > 50000 nM. For `NC1=NC2(CCCCC2)N(OCc2ccccc2)C(N)=N1` [1,3,5-Triazaspiro[5.5]undeca-1,3-diene-2,4-diamine, IIb], the IC50 was 1790 nM. Molecule `NC1=NC2(CCCCC2)N(OCCCCOc2ccccc2)C(N)=N1` [1,3,5-Triazaspiro[5.5]undeca-1,3-diene-2,4-diamine, IIg] has an IC50 of 155 nM. In the case of `CN(CCCON1C(N)=NC(N)=NC12CCCC2)c1ccccc1` [6,8,10-Traiazaspiro[4.5]deca-6,8-diene-7,9-diamine, If], the IC50 is reported as 14.9 nM. `NC1=NC2(CCCCC2)N(OCCc2ccccc2)C(N)=N1` [1,3,5-Triazaspiro[5.5]undeca-1,3-diene-2,4-diamine, IIc] showed an IC50 of 9.4 nM. `NC1=NC2(CCCC2)N(OCCCOc2ccccc2)C(N)=N1` gave an IC50 of 2.3 nM. With `NC1=NC2(CCCCC2)N(Cc2ccccc2)C(N)=N1` [1,3,5-Triazaspiro[5.5]undeca-1,3-diene-2,4-diamine, IIa] the IC50 was > 50000 nM. With `NC1=NC2(CCCC2)N(OCCCc2ccccc2)C(N)=N1` [6,8,10-Traiazaspiro[4.5]deca-6,8-diene-7,9-diamine, Id] the IC50 was 20.1 nM. `NC1=NC2(CCCC2)N(OCCCCOc2ccccc2)C(N)=N1` [6,8,10-Traiazaspiro[4.5]deca-6,8-diene-7,9-diamine, Ig] gave an IC50 of 42.2 nM. `NC1=NC2(CCCCC2)N(OCCCc2ccccc2)C(N)=N1` [1,3,5-Triazaspiro[5.5]undeca-1,3-diene-2,4-diamine, IId] showed an IC50 of 31.9 nM.
